Experimental data: patent US9827208B2, “Antioxidant dietary supplement compositions and methods for maintaining healthy skin” (priority 2004, dated 2017)

What was measured:
[1] = Digestive tolerance of ingested high quantities of antioxidants; type: in vivo; details: oral
[2] = Stability of gallic acid as additive in juice and food products; type: physicochemical; details: acidity about pH 5 or lower
[3] = test system: skin conditions arising from acne and rosacea; test: Effect of oral antioxidant/lycopene compositions on skin conditions (acne, rosacea symptoms); type: in vivo, human; details: oral administration, methods of treatment of the invention
[4] = cited from earlier work

SMILES	digestive system problems on ingestion of relatively high quantities [1]	effectiveness in improving skin conditions / suppressing skin ailments [3]	further results
O=C(O)c1cc(O)c(O)c(O)c1 [gallic acid, trihydroxy benzoic acid]	can result in digestive system problems		stability of gallic acid in un-oxidized form in juice/food product [2]: stable
CCCOC(=O)c1cc(O)c(O)c(O)c1 [propyl gallate]		not effective	
O=C1O[C@H]([C@@H](O)CO)C(O)=C1O [ascorbic acid]	can result in digestive system problems		
CC(C)=CCC/C(C)=C/C=C/C(C)=C/C=C/C(C)=C/C=C/C=C(C)/C=C/C=C(C)/C=C/C=C(\C)CCC=C(C)C [lycopene]		less effective	bioavailability of lycopene on heating and processing tomatoes into tomato paste ([4]; heating and processing into tomato paste): increases bioavailability; adsorption by humans of lycopene from dietary sources ([4]; humans, dietary sources): ≥ 2,5%; bioavailability of lycopene in presence of oil ([4]; presence of oil): increases bioavailability
COC(=O)c1cc(O)c(O)c(O)c1 [methyl gallate]		not effective	
